Measurements taken from US20120276064A1, “METHODS AND COMPOSITIONS FOR REJUVENATION AND EXPANSION OF STEM CELLS” (priority 2011, published 2012).

Assays:
young and old MuSCs = test: Bulk proliferation of MuSCs in soft hydrogel culture; type: cell-based, mouse; settings: soft (12 kPa) hydrogel, 10 μM, one week
Method: MuSC culture and treatment. Following isolation, MuSCs were pelleted and resuspended into myogenic cell culture medium containing DMEM/F10 (50:50), 15% FBS, 2.5 ng/ml bFGF, and 1% penicillin/streptomycin. MuSCs were seeded at 1000 cells per well (24-well plate size wells, 2.0 cm^2 surface area) on laminin-tethered hydrogels of either 12 kPa (soft) or ˜10^6 kPa (rigid) rigidities. Cells were maintained at 37° C. in 5% CO2. Media was changed daily. […]
Proliferation assays. MuSC proliferation in hydrogel culture was assessed at both the clonal and bulk levels. […] Cell proliferation was monitored by time-lapse microscopy from 12 hours (day 0) to four days post-seeding as described previously using a PALM/AxioObserver Z1 system (Carl Zeiss MicroImaging) with custom environmental control chamber and motorized stage. Images were recorded every 20 min at 5× magnification. […] After one week, cells were trypsinized and counted on a hemocytometer.

[1] = test system: p38 signaling (phosphorylation of the p38 substrate MK2); test: Phospho-MK2 flow cytometry in primary myoblasts stimulated with anisomycin and TNF; type: cell-based; settings: primary mouse myoblasts, 10 μM pretreatment one hour, anisomycin 1 μg/ml + TNF 50 ng/ml 30 min
Method: Phospho-MK2 flow cytometry. To analyze p38 signaling, the phosphorylation of MK2, a readout of p38 kinase activity, was assayed by flow cytometry. Primary mouse myoblasts were isolated as previously described. Myoblasts were cultured on collagen-coated tissue-culture plastic dishes in myogenic cell medium and were maintained at 37° C. in 5% CO2. Myoblasts were pretreated with 0.1% DMSO carrier control or 10 μM SB202190 for one-hour and then were stimulated with anisomycin (1 μg/ml; Sigma) and TNF (50 ng/ml; R&D Systems, Minneapolis, Minn.) for 30 minutes or mock buffer (PBS). Pretreatments and stimuli were added in 50× spike solutions. After 15 minutes, cells were collected from hydrogel cultures by incubation 0.5% trypsin in PBS for 2 min at 37° C. Cells were fixed with 1.5% paraformaldehyde in PBS, permeabilized in methanol at −80° C., and stained with an AlexFluor488-conjugated antibody reactive to the phosphorylated (Thr334) form of MK2 (Cell Signaling). Cells were analyzed for phospho-MK2 positivity on a modified FACStar Plus flow cytometer using FACS Diva software (BD Biosciences).

[2] = test system: tibialis anterior muscle of notexin-injured old mice; test: In vivo force measurements after systemic SB202190 administration; design: species or system mouse; settings: 5 mg/kg IP, 5 daily injections starting one day after notexin injury, two months post-injury
Method: Systemic SB202190 administration. Old mice were systemically administered SB202190 (5 mg/kg body weight in 0.9% NaCl/H2O) with five daily doses by IP injection starting at one day after NTX injury.
In vivo force measurements. Force measurements were performed on tibialis anterior (TA) muscles in vivo in anesthetized mice, as previously described. The hindlimb was shaved and fixed to a frame to immobilize it without compromising the blood supply to the leg. The animal was warmed on an isothermal pad and by heat lamp. A small incision was placed in the skin directly above the TA muscle. The distal tendon was sutured to a thin metal hook and then attached to a force transducer (300C-LR; Aurora Scientific, Aurora, Ontario). Distal tendons from all front lower hindlimb muscles other than TA were cut, leaving TA isolated during attachment to the force transducer. The muscles and tendons were kept moist by periodic wetting with saline (0.9% sodium chloride) solution. […] Muscle force and synchronization pulses were recorded for 2 seconds immediately prior to the stimulation and 3 seconds after the end of the stimulation. […] Data were collected with a PCI-6251 data acquisition card (National Instruments, Austin, Tex.) and analyzed in Matlab. Specific force values were calculated by normalizing the force measurements by the muscle physiological cross-sectional area (PCSA), as described previously: […]

Oc1ccc(-c2nc(-c3ccncc3)c(-c3ccc(F)cc3)[nH]2)cc1 [SB202190]
Increase in total cell numbers (relative to seeding) (young and old MuSCs): ~30 fold | Stimulation of proliferation of hydrogel-cultured MuSCs (in words) (young and old MuSCs): profound stimulation of proliferation | p38 signaling activity / MK2 phosphorylation [1]: prevents MK2 phosphorylation | p38 signaling activity / MK2 phosphorylation ([1]; listed as SB): substantially attenuated p38 signaling activity | Recovery of twitch and tetanus forces [2]: aided recovery
